Legend:
[1] = system: BR and C2 canine mastocytoma cells; assay: XTT-based proliferation assay of canine mast cell tumor cell lines; settings: 0.1-10 μM; 48-72 hours; BR or C2 cells
Excerpt: (§1) The C2 cell line has an internal tandem duplication (ITD) of the KIT juxtamembrane region.

[2] = system: systemic mastocytosis with D816V KIT mutation; assay: Case of a patient with systemic mastocytosis / mast cell leukemia treated with PKC412; assay type: in vivo, human
Excerpt: They were supported with red blood cell and platelet transfusions, antihistamine blockade, and cromolyn sodium.

[3] = molecular target: T1, constitutively activated mutant canine KIT in BR and C2 cells (Canis lupus familiaris, UniProt O97799, L579P); assay: KIT autophosphorylation in BR and C2 canine mastocytoma cell lysates (anti-P-Tyr Western immunoblot); assay type: cell-based
T1 construct: Lysates prepared from BR or C2 cells are probed with an anti-P-Tyr antibody; endogenous in cells; host or cells: BR canine mastocytoma cell line
T1 sequence (O97799 28-979 L579P): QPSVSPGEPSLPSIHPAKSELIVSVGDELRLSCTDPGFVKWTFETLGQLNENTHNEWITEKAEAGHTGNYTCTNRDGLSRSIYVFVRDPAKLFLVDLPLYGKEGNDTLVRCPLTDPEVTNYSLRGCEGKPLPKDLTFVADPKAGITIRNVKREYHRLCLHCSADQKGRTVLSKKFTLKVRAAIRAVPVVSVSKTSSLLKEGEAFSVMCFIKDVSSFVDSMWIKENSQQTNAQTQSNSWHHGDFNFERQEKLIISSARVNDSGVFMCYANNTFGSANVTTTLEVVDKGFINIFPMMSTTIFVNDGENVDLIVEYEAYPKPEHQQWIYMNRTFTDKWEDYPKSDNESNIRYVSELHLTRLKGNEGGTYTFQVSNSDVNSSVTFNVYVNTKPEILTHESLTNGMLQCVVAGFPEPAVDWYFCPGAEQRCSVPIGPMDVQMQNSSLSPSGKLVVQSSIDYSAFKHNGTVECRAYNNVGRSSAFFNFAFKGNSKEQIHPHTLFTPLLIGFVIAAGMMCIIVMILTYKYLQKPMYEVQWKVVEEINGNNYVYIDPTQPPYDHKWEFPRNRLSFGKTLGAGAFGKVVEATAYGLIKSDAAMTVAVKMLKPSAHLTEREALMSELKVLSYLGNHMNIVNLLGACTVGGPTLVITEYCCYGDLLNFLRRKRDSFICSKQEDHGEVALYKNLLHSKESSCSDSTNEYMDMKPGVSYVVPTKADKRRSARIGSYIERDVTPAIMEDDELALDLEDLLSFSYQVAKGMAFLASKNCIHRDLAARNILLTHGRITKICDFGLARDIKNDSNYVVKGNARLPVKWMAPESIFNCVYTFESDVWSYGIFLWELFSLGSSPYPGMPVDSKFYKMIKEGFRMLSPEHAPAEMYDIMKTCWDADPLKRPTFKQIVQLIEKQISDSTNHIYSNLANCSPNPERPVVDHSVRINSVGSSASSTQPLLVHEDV
Excerpt: as §1

With CO[C@@H]1[C@H](N(C)C(=O)c2ccccc2)C[C@H]2O[C@]1(C)n1c3ccccc3c3c4c(c5c6ccccc6n2c5c31)C(=O)NC4 [PKC412, N-[(9S, 10R,11R,13R)-2,3,10,11,12,13-hexahydro-10-methoxy-9-methyl-1-oxo-9,13-epoxy-1H,9H-diindolo[1,2,3-gh:3′,2′,1′-lm]pyrrolo[3,4j][1,7]benzodiazonin-11-yl]-N-methylbenzamide] the “proliferation decreased compared to cells treated with media only” value [1] was 90-95%, the “tolerability / adverse events” value ([2]; 100 mg twice daily orally, later 75 mg po tid) was “well tolerated without any significant adverse events” and the “day on which patient expired” value ([2]; PKC412 stopped on day #102) was 111 days. The serum histamine level ([2]; after 1 month (about day 32)) was 1031 ng/dL, the “Transient platelet-transfusion independence, duration” value ([2]; cycle 2) was 2-3 weeks and the platelets ([2]; cycle 2, during transient platelet-transfusion independence) was 20,000-25,000 /mm3. For the same molecule, the Serum histamine ([2]; cycle 3) was 2525 ng/dL, the “bilirubin (total)” value ([2]; cycle 3, when PKC412 stopped on day #102) was 14 mg/dL and the circulating mast cells ([2]; day 32 of treatment) was less than 5%. The “white blood cell count” value ([2]; day 32 of treatment) was “normal”, the “Bone marrow clusters of mast cells by IPOX” value ([2]; end of cycle 1) was “no changes” and the Bone marrow blasts ([2]; end of cycle 1 / after 1 month, 5-10% at presentation) was less than 5%. The Karnofsky performance status ([2]; end of cycle 1 / after 1 month, from 20% before therapy) was 70%, the “Response (criteria of Valent et al)” value ([2]; end of cycle 1, 100 mg twice daily orally, 28-day cycles) was “Partial Response” and the direct bilirubin ([2]; end of cycle 1, from 2.8) was 1.1 mg/dL. For the same molecule, the total bilirubin ([2]; end of cycle 1, from 4.8) was 2.1 mg/dL, the “Peripheral blood mast cell numbers” value ([2]; end of cycle 1, from 40-50%) was less than 10% and the LDH ([2]; end of cycle 1, from 769) was 239 IU/L. The Serum histamine ([2]; end of cycle 1, from 7000, normal <100) was 1000 ng/dL, the Bone marrow blasts ([2]; end of cycle 2) was 10-15% and the “Bone marrow mast cell clusters” value ([2]; end of cycle 2) was “no significant change”. For the same molecule, the “Peripheral blood mast cell numbers” value ([2]; end of cycle 2) was less than 10%, the Response ([2]; end of cycle 2) was “Maintenance of Partial Response” and the Serum histamine ([2]; end of cycle 2) was 800 to 1200 ng/dL. For the same molecule, the serum tryptase ([2]; end of cycle 2) was greater than 200 µg/L, the direct bilirubin ([2]; end of cycle 2, from 1.1) was 0.7 mg/dL and the total bilirubin ([2]; end of cycle 2, from 2.1) was 1.3 mg/dL. The Response ([2]; end of cycle 3, dose increased to 75 mg po tid on day #91) was “Disease Progression”, the “Inhibition of KIT autophosphorylation” value ([3]; 0.1 μM dose, BR or C2 cells, 90 minutes) was “Near complete inhibition” and the autophosphorylation of c-kit ([3]; 0.001-0.01 μM doses, BR or C2 cells, 90 minutes) was “Limited autophosphorylation”. For the same molecule, the “Inhibition of KIT autophosphorylation” value ([3]; 10 and 1.0 μM doses, BR or C2 cells, 90 minutes) was “complete inhibition” and the “expression of c-kit protein (membrane reprobed with anti-c-kit antibody)” value ([3]; PKC412 treated BR or C2 cells) was “no change”.

— patent US8575146B2, “Pharmaceutical uses of staurosporine derivatives” (Novartis AG, priority 2003, dated 2013)
